Laboratory results taken from US11566028B2, “Bicyclic heterocycles as FGFR inhibitors” (Incyte Corporation, priority 2019, dated 2023).
Like-named read-outs stand apart in the source and are kept apart here.

Columns and labels:
Format in all cases: biochemical
[1] = biological target: wild-type un-phosphorylated FGFR3 protein (Homo sapiens (Human), UniProt P22607); test: FGFR Enzymatic Assay (FRET peptide phosphorylation), FGFR3; conditions: pre-incubated for 4 hours
FGFR1 = FGFR1 (Homo sapiens (Human), UniProt P11362); test: FGFR Enzymatic Assay (FRET peptide phosphorylation), FGFR1; conditions: pre-incubated for 4 hours
FGFR1, sequence (P11362 22-822): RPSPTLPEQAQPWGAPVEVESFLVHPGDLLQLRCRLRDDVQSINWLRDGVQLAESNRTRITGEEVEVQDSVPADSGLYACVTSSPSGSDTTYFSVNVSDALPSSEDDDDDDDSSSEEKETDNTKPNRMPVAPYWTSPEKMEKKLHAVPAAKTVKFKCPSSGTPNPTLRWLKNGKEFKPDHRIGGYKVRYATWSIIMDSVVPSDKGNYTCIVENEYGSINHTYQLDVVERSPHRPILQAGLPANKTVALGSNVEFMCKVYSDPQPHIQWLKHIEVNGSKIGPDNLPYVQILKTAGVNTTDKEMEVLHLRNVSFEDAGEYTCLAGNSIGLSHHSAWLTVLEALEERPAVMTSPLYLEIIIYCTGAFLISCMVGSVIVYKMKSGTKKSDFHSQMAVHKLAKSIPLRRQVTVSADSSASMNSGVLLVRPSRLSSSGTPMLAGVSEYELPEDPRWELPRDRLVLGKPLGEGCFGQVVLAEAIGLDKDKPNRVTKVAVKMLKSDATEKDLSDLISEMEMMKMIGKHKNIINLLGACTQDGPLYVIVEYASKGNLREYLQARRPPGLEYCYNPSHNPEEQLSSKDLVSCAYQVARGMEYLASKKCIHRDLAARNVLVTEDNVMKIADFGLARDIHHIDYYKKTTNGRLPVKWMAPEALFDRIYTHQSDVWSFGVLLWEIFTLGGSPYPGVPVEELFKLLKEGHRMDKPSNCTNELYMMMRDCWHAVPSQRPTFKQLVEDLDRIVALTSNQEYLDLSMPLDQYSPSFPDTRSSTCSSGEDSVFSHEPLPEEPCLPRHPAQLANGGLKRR

FGFR2 = FGFR2 (Homo sapiens (Human), UniProt P21802); test: FGFR Enzymatic Assay (FRET peptide phosphorylation), FGFR2
FGFR2, sequence (P21802 22-821): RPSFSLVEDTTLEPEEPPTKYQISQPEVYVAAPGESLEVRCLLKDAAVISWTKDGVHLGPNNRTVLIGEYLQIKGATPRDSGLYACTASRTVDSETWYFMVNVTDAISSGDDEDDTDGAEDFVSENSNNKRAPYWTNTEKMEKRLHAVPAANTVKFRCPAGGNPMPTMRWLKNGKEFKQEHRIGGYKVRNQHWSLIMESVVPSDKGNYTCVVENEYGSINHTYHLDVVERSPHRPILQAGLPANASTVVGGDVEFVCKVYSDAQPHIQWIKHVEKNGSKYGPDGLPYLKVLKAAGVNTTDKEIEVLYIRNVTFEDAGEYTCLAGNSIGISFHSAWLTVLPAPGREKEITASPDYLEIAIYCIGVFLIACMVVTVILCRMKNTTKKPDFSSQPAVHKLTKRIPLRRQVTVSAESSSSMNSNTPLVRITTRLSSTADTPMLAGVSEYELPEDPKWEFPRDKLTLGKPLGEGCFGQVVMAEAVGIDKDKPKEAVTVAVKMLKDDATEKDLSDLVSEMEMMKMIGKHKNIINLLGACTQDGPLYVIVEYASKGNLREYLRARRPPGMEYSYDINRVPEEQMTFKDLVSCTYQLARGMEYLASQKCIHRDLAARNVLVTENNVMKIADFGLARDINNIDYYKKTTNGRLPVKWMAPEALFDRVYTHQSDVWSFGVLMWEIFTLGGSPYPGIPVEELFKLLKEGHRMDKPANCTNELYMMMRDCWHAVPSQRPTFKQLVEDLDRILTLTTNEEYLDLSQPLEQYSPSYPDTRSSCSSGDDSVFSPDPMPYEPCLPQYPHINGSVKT

FGFR4 = FGFR4 (Homo sapiens (Human), UniProt P22455); test: FGFR Enzymatic Assay (FRET peptide phosphorylation), FGFR4
FGFR4, sequence (P22455 22-802): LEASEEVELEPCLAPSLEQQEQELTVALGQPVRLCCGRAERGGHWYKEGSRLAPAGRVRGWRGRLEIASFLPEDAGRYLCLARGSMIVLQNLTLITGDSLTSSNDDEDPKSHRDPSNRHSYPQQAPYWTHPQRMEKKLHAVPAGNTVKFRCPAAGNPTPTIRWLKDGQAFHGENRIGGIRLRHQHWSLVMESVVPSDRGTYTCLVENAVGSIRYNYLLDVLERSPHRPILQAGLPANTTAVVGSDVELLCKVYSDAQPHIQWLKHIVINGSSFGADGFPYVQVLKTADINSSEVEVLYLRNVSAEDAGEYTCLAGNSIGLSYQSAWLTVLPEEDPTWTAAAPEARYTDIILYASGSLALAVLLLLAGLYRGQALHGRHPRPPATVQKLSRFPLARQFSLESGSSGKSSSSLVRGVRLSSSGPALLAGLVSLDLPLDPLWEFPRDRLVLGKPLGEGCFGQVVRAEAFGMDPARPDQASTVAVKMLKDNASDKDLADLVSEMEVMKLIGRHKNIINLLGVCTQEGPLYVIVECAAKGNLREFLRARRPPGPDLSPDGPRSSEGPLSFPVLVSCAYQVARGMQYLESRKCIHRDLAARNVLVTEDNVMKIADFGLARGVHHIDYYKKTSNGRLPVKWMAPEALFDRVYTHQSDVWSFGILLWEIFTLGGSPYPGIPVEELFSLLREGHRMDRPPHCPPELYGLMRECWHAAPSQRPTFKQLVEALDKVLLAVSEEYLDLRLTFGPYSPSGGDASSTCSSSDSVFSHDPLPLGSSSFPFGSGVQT

wild-type un-phosphorylated FGFR3 protein, sequence (P22607 23-806): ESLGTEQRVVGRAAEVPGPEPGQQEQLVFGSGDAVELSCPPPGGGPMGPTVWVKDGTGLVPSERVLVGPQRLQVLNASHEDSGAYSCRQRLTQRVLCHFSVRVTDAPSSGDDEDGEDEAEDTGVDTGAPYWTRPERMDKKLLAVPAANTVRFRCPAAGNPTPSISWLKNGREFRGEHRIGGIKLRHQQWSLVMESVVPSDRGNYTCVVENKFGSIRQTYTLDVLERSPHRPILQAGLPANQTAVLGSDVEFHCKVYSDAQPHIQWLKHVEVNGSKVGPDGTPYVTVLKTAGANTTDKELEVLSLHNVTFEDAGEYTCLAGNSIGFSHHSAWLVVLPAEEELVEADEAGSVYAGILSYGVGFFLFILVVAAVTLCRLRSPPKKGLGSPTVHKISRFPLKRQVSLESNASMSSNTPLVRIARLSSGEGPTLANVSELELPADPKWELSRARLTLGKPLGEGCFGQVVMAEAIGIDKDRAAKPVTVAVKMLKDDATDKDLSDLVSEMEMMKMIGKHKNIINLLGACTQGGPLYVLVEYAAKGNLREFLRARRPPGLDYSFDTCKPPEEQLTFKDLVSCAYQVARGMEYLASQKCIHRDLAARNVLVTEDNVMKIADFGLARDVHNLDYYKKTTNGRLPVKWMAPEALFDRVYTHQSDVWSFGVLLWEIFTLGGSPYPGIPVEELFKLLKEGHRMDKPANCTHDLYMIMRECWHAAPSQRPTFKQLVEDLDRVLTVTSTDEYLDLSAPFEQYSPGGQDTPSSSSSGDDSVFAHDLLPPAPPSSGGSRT

SMILES	IC50 [1]	IC50 (FGFR1)	IC50 (FGFR2; pre-incubated for 4 hours)	IC50 (FGFR4; pre-incubated for 4 hours)	IC50 (FGFR2)	IC50 (FGFR4)
CNC(=O)c1cc(C)c(F)c(-c2cnn3cc(-c4cnn([C@@H]5CCN(C)C[C@H]5F)c4)c(N[C@H]4CCOC4)nc23)c1 [Example 65, 4-Fluoro-3-(6-(1-((3R,4R)-3-fluoro-1-methylpiperidin-4-yl)-1H-pyrazol-4-yl)-5-(((S)-tetrahydrofuran-3-yl)amino)pyrazolo[1,5-a]pyrimidin-3-yl)-N,5-dimethylbenzamide]	< 10 nM	10 to 30 nM	< 10 nM	30 to 200 nM	–	–
CNC(=O)c1cc(C)c(F)c(-c2cnn3cc(-c4cnn(C5CN(C)C5)c4)c(N[C@H]4CCOC4)nc23)c1 [Example 35, (S)-4-Fluoro-N,3-dimethyl-5-(6-(1-(1-methylazetidin-3-yl)-1H-pyrazol-4-yl)-5-((tetrahydrofuran-3-yl)amino)pyrazolo[1,5-a]pyrimidin-3-yl)benzamide]	< 10 nM	10 to 30 nM	< 10 nM	≥ 200 nM	–	–
CNC(=O)c1cncc(-c2cnn3cc(-c4ccn(C)n4)c(N[C@H]4CCOC4)nc23)c1 [Example 59, (S)—N-Methyl-5-(6-(1-methyl-1H-pyrazol-3-yl)-5-((tetrahydrofuran-3-yl)amino)pyrazolo[1,5-a]pyrimidin-3-yl)nicotinamide]	< 10 nM	< 10 nM	< 10 nM	10 to 30 nM	–	–
[2H]C([2H])([2H])NC(=O)c1cc(C)c(F)c(-c2cnn3cc(-c4cnn([C@@H]5CCN(C)C[C@H]5F)c4)c(O[C@H]4CCOC4)nc23)c1 [Example 64, 4-Fluoro-3-(6-(1-((3R,4R)-3-fluoro-1-methylpiperidin-4-yl)-1H-pyrazol-4-yl)-5-(((S)-tetrahydrofuran-3-yl)oxy)pyrazolo[1,5-a]pyrimidin-3-yl)-5-methyl-N-(methyl-d3)benzamide]	< 10 nM	< 10 nM	< 10 nM	10 to 30 nM	–	–
CCn1cc(-c2cn3ncc(-c4cc(C(=O)NC)cc(F)c4F)c3nc2N[C@H]2CCOC2)cn1 [Example 53, (S)-3-(6-(1-Ethy1-1H-pyrazol-4-y1)-5-((tetrahydrofuran-3-yl)amino)pyrazolo[1,5-a]pyrimidin-3-y1)-4,5-difluoro-N-methylbenzamide]	< 10 nM	10 to 30 nM	–	–	< 10 nM	> 200 nM
CNC(=O)c1cc(C)c(F)c(-c2cnn3cc(-c4cnc(C)o4)c(N[C@H]4CCOC4)nc23)c1 [Example 42, (S)-4-Fluoro-N,3-dimethyl-5-(6-(2-methyloxazol-5-y1)-5-((tetrahydrofuran-3-yl)amino)pyrazolo[1,5-a]pyrimidin-3-yl)benzamide]	< 10 nM	10 to 30 nM	–	–	< 10 nM	30 to 200 nM
CCn1ccc(-c2cn3ncc(-c4cc(C(=O)NC)cc(C)c4F)c3nc2N[C@H]2CCOC2)n1 [Example 43, (S)-3-(6-(1-Ethy1-1H-pyrazol-3-y1)-5-((tetrahydrofuran-3-yl)amino)pyrazolo[1,5-a]pyrimidin-3-y1)-4-fluoro-N,5-dimethylbenzamide]	< 10 nM	10 to 30 nM	–	–	< 10 nM	30 to 200 nM
Cn1cc(-c2cn3ncc(-c4cccc(-c5cc[nH]n5)c4)c3nc2O[C@H]2CCOC2)cn1 [Example 51, (S)-3-(3-(1H-Pyrazol-3-yl)phenyl)-6-(1-methyl-1H-pyrazol-4-yl)-5-((tetrahydrofuran-3-yl)oxy)pyrazolo[1,5-a]pyrimidine]	< 10 nM	10 to 30 nM	< 10 nM	≥ 200 nM	–	–
